Laboratory results from patent publication US8481547B2, “Substituted benzothiazole and benzoxazole derivatives useful as inhibitors of DPP-1” (Janssen Pharmaceutica NV, priority 2009, dated 2013).
Where a name gives a salt, the structure may show the parent alone.

Target: T1, recombinant human DPP-1 (Cathepsin C) (Homo sapiens, UniProt P53634)
T1 construct: made in house
Assay: DPP-1 Inhibition Assay (In Vitro)
Assay type: biochemical
Details: fluorogenic substrate GR-AMC 10 uM, 0.15 nM DPP-1, pH 7.0, room temperature; average value where tested multiple times
Description: Test compounds were assessed for DPP-1 (Cathepsin C) inhibitory activity using a fluorogenic substrate, GR-AMC (Glycine-Arginine-amino-4-methylcoumarin, Bachem, 1-1215). The amount of amino-methylcoumarin released is proportional to the DPP-1 activity, and the reaction is monitored kinetically with a Molecular Devices plate reader using black 96-well plates.
All compounds were tested under room temperature conditions. The assay buffer consisted of 50 mM HEPES, pH 7.0, 100 mM NaCl, 2 mM glutathione (GSH), and 0.002% TWEEN 20. GSH and TWEEN 20 were added to the buffer fresh daily. Just prior to use, an in-house preparation of recombinant human DPP-1 (240 μM stock, MW 49.6 kD) was diluted 600-fold in assay buffer containing fresh 2 mM dithiothreitol (DTT) to activate the enzyme, then diluted into assay buffer (without DTT) 133-fold for a DPP-1 working solution of 3 nM. Test compounds were diluted in DMSO for 20× their final assay concentrations.
Additions to a 96-well black Costar 3915 plates were as follows: 90 μL of 11 μM GR-AMC, 5 μL test compound (followed by mixing), and 5 μL 3 nM DPP1 to start the reaction. Fluorescent reactions were monitored kinetically at 360 nm excitation, 440 nm emission on a Molecular Devices Spectramax XPS reader. The Softmax Pro software of the reader determined the initial velocity of the selected data (the first 3-5 minutes of the reaction), and the best linear regression fit of the initial kinetic data. Final assay conditions were 0.15 nM DPP-1, 10 uM GR-AMC, 50 mM HEPES, pH 7.0, 100 mM NaCl, 2 mM GSH, 0.002% TWEEN 20, 1 μM DTT, 5.0% DMSO. Initial velocity rates were plotted vs. test compound concentration by use of a four-parameter logistics equation (nonlinear regression, sigmoidal dose-response (variable slope), with fixed Hill (1.0) using GraphPad Prism® software for determination of DPP-1 IC50. Within-run assay coefficient of variation (CV) was generally <10%; between-run CV<20%.
Representative compounds of the present invention were tested according to the procedure as described above, with results as listed in Table 3, below.

T1 sequence (P53634 25-463): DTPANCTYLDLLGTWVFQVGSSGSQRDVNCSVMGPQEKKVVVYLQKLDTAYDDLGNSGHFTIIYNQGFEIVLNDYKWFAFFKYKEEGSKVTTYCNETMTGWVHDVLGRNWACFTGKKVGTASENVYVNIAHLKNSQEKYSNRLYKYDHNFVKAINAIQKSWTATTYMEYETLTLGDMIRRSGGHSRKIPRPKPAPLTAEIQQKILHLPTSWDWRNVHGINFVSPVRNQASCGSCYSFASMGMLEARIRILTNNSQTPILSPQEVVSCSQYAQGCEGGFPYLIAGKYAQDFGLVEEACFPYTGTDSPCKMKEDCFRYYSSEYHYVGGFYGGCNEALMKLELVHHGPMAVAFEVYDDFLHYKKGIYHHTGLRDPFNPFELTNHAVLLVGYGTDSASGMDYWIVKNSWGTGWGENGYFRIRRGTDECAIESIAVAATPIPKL

Row | IC50 [nM] | SMILES
1 | 2300 | N[C@@H](Cc1cccs1)C(=O)N1CCN(c2nc3ccc(C(=O)NC4CCCCC4)cc3s2)CC1 [Compound 30]
2 | 2200 | CN(C)C(=O)c1ccc2nc(N3CCN(C(=O)[C@@H](N)Cc4cccs4)CC3)sc2c1 [Compound 27]
3 | 9600 | N[C@@H](Cc1cccs1)C(=O)N1CCN(c2nc3ccc(C(=O)O)cc3s2)CC1 [Compound 26]
4 | 760 | N[C@@H](Cc1cccs1)C(=O)N1CCN(c2nc3ccc(CO)cc3s2)CC1 [Compound 18, (S)-2-amino-1-(4-(6-(hydroxymethyl)benzo[d]thiazol-2-yl)piperazin-1-yl)-3-(thiophen-2-yl)propan-1-one]
5 | 370 | N[C@@H](Cc1cccs1)C(=O)N1CCN(c2nc3ccc(-c4cccnc4)cc3s2)CC1 [Compound 13]
6 | 1400 | N[C@@H](Cc1cccs1)C(=O)N1CCN(c2nc3ccccc3o2)CC1 [Compound 2, (S)-2-amino-1-(4-(benzo[d]oxazol-2-yl)piperazin-1-yl)-3-(thiophen-2-yl)propan-1-one hydrochloride]
7 | 1300 | N[C@@H](Cc1cccs1)C(=O)N1CCN(c2nc3ccc(Br)cc3s2)CC1 [Compound 5]
8 | 200 | COc1ccc(NC(=O)c2ccc3nc(NCCN(C)C(=O)[C@@H](N)Cc4cccs4)sc3c2)cc1OC [Compound 48, (S)-2-(2-(2-amino-N-methyl-3-(thiophen-2-yl)propanamido)ethylamino)-N-(3,4-dimethoxyphenyl)benzo[d]thiazole-6-carboxamide]
9 | 870 | N[C@@H](Cc1cccs1)C(=O)N1CCN(c2nc3ccc(C(=O)NC4CCCC4)cc3s2)CC1 [Compound 19, (S)-2-(4-(2-amino-3-(thiophen-2-yl)propanoyl)piperazin-1-yl)-N-cyclopentylbenzo[d]thiazole-6-carboxamide]
10 | 1300 | N[C@@H](Cc1cccs1)C(=O)N1CCN(c2nc3ccc(-c4ccc(C(F)(F)F)cc4)cc3s2)CC1 [Compound 14, (S)-2-amino-3-(thiophen-2-yl)-1-(4-(6-(4-(trifluoromethyl)phenyl)benzo[d]thiazol-2-yl)piperazin-1-yl)propan-1-one]
11 | 220 | N[C@@H](Cc1cccs1)C(=O)N1CCN(c2nc3ccc(-c4ccc(O)cc4)cc3s2)CC1 [Compound 15]
12 | 700 | N[C@@H](Cc1cccs1)C(=O)NCCNc1nc2ccccc2o1 [Compound 47]
13 | 520 | N[C@@H](Cc1cccs1)C(=O)N1CCN(c2nc3ccc(CNC4CCCC4)cc3s2)CC1 [Compound 21, (S)-2-amino-1-(4-(6-((cyclopentylamino)methyl)benzo[d]thiazol-2-yl)piperazin-1-yl)-3-(thiophen-2-yl)propan-1-one]
14 | 4700 | C#CC[C@H](N)C(=O)NCCNc1nc2ccccc2s1 [Compound 42]
15 | 3500 | N[C@@H](Cc1cccs1)C(=O)N1CCN(c2nc3ccccc3s2)CC1 [Compound 1]
16 | 970 | N[C@@H](Cc1cccs1)C(=O)N1CCN(c2nc3ccc(-c4ccc(F)c(F)c4)cc3s2)CC1 [Compound 11]

Row | IC50 [nM] | SMILES
17 | 820 | CCCCNC(=O)c1ccc2nc(N3CCN(C(=O)[C@@H](N)Cc4cccs4)CC3)sc2c1 [Compound 24]
18 | 1200 | CCOc1ccc(NC(=O)c2ccc3nc(N4CCN(C(=O)[C@@H](N)Cc5cccs5)CC4)sc3c2)cc1 [Compound 28]
19 | 560 | N[C@@H](Cc1cccs1)C(=O)N1CCN(c2nc3ccc(C(=O)Nc4ccc(F)cc4)cc3s2)CC1 [Compound 20]
20 | 5600 | COc1ccc(NC(=O)c2ccc3nc(N4CCN(C(=O)[C@@H](N)Cc5ccsc5)CC4)sc3c2)cc1OC [Compound 12]
21 | 740 | N[C@@H](Cc1cccs1)C(=O)NCCNc1nc2ccccc2s1 [Compound 46, (S)-2-amino-N-(2-(benzo[d]thiazol-2-ylamino)ethyl)-3-(thiophen-2-yl)propanamide hydrochloride]
22 | 1100 | Cc1ccc(-c2ccc3nc(N4CCN(C(=O)[C@@H](N)Cc5cccs5)CC4)sc3c2)cc1 [Compound 8]
23 | 2100 | CCCNC(=O)c1ccc2nc(N3CCN(C(=O)[C@@H](N)Cc4cccs4)CC3)sc2c1 [Compound 29]
24 | 580 | N[C@@H](Cc1cccs1)C(=O)N1CCN(c2nc3ccc(-c4ccccc4F)cc3s2)CC1 [Compound 16]
25 | 18000 | CC[C@H](N)C(=O)NCCNc1nc2ccccc2s1 [Compound 41, (S)-2-amino-N-(2-(benzo[d]thiazol-2-ylamino)ethyl)butanamide hydrochloride]
26 | 170 | COc1ccc(NC(=O)c2ccc3nc(N4CCN(C(=O)[C@@H](N)Cc5cccs5)CC4)sc3c2)cc1OC [Compound 3, (S)-2-(4-(2-amino-3-(thiophen-2-yl)propanoyl)piperazin-1-yl)-N-(3,4-dimethoxyphenyl)benzo[d]thiazole-6-carboxamide hydrochloride]
27 | 3100 | C#CC[C@H](N)C(=O)NCCNc1nc2ccccc2o1 [Compound 44, (S)-2-amino-N-(2-(benzo[d]oxazol-2-ylamino)ethyl)pent-4-ynamide hydrochloride]
28 | ~8000 | CC[C@H](N)C(=O)NCCNc1nc2ccccc2o1 [Compound 45]
29 | 2100 | COc1ccc(NC(=O)c2ccc3nc(N4CCN(C(=O)[C@@H](N)Cc5ccco5)CC4)sc3c2)cc1OC [Compound 6]
30 | 3000 | CC[C@H](N)C(=O)N1CCN(c2nc3ccc(C(=O)Nc4ccc(OC)c(OC)c4)cc3s2)CC1 [Compound 4, (S)-2-(4-(2-aminobutanoyl)piperazin-1-yl)-N-(3,4-dimethoxyphenyl)benzo[d]thiazole-6-carboxamide hydrochloride]
31 | 1200 | COc1cccc(CNC(=O)c2ccc3nc(N4CCN(C(=O)[C@@H](N)Cc5cccs5)CC4)sc3c2)c1 [Compound 31]
32 | 12000 | CC[C@H](N)C(=O)NCCNc1nc2ccc(OC)cc2s1 [Compound 43, (S)-2-amino-N-(2-(6-methoxybenzo[d]thiazol-2-ylamino)ethyl)butanamide hydrochloride]
